According to patent US11053251B2, “GPR35 modulators” (Prometheus Biosciences, Inc., priority 2019, dated 2021):

What follows are molecules tested against Human GPR35 (Homo sapiens, UniProt Q9HC97, S294R) (assay: Alternative Beta-Arrestin Assay (JumpIn 294R Tango U2OS cells, LiveBLAzer-FRET B/G)). Conditions: Human GPR35 expressing JumpIn 294R Tango U2OS cells, 5 hours treatment.
Type: cell-based
Procedure, shortened: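 U2OS Tango cells expressing human GPR35 S294R, plated overnight, exposed to serially diluted compounds for 5 hours. β-lactamase reporter read with LiveBLAzer-FRET B/G (CCF4-AM) after 2 h; EC50 from four-parameter fit, zaprinast as positive control.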

Sequence of Human GPR35 (Q9HC97 whole entry S294R): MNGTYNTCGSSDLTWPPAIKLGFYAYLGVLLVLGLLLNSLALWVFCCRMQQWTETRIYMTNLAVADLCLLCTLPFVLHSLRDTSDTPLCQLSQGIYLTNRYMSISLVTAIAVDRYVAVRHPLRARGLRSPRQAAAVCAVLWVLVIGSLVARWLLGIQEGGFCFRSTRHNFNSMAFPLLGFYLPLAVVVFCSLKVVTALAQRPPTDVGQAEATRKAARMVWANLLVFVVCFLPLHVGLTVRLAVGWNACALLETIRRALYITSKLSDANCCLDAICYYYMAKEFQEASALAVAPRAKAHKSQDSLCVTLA

| Compound | EC50 [µM] |
| --- | --- |
| CCOc1cc(-c2cccc(C[C@@H](N)C(=O)O)c2)ccc1-c1nc2[nH]nnc2c(=O)[nH]1 [Compound 275, (R)-2-amino-3-(3′-ethoxy-4′-(7-oxo-6,7-dihydro-3H-[1,2,3]triazolo[4,5-d]pyrimidin-5-yl)-[1,1′-biphenyl]-3-yl)propanoic acid] | ≤ 10 |
| CCOc1cc(-c2cccc(C[C@@H](O)C(=O)O)c2)ccc1-c1nc2[nH]nnc2c(=O)[nH]1 [Compound 284, (R)-3-(3′-ethoxy-4′-(7-oxo-6,7-dihydro-3H-[1,2,3]triazolo[4,5-d]pyrimidin-5-yl)-[1,1′-biphenyl]-3-yl)-2-hydroxypropanoic acid] | ≤ 10 |
| CCOc1cc(-c2cc(C(=O)O)cs2)ccc1-c1nc2[nH]nnc2c(=O)[nH]1 [Compound 190, 5-(3-ethoxy-4-(7-oxo-6,7-dihydro-3H-[1,2,3]triazolo[4,5-d]pyrimidin-5-yl)phenyl)thiophene-3-carboxylic acid] | ≤ 10 |
| O=C(O)CNc1cccc(-c2ccc(-c3nc4[nH]nnc4c(=O)[nH]3)c(OCCN3CCCC3)c2)c1 [Compound 230, (4′-(7-Oxo-6,7-dihydro-3H-[1,2,3]triazolo[4,5-d]pyrimidin-5-yl)-3′-(2-(pyrrolidin-1-yl)ethoxy)-[1,1′-biphenyl]-3-yl)glycine] | 10 to 50 |
| CCOc1cc(-c2cccc([C@H]3C[C@H]3C(=O)O)c2)ccc1-c1nc2[nH]nnc2c(=O)[nH]1 (single isomer, unassigned) [Compound 307, Cis-2-(3′-ethoxy-4′-(7-oxo-6,7-dihydro-3H-[1,2,3]triazolo[4,5-d]pyrimidin-5-yl)-[1,1′-biphenyl]-3-yl)cyclopropane-1-carboxylic acid] | ≤ 10 |
| CCOc1cc(-c2nc(C(=O)O)cs2)ccc1-c1nc2[nH]nnc2c(=O)[nH]1 [Compound 187, 2-(3-ethoxy-4-(7-oxo-6,7-dihydro-3H-[1,2,3]triazolo[4,5-d]pyrimidin-5-yl)phenyl)thiazole-4-carboxylic acid] | ≤ 10 |
| CCOc1cc(-c2ccc(C(=O)OCc3oc(=O)oc3C)cc2)ccc1-c1nc2nn[nH]c2c(=O)[nH]1 [Compound 193, (5-Methyl-2-oxo-1,3-dioxol-4-yl)methyl 3′-ethoxy-4′-(7-oxo-6,7-dihydro-3H-[1,2,3]triazolo[4,5-d]pyrimidin-5-yl)-[1,1′-biphenyl]-4-carboxylate] | ≤ 10 |
| CCOc1cc(-c2cccc(OC(CC)C(=O)O)c2)ccc1-c1nc2[nH]nnc2c(=O)[nH]1 (stereo not shown) [Compound 247, 2-((3′-ethoxy-4′-(7-oxo-6,7-dihydro-3H-[1,2,3]triazolo[4,5-d]pyrimidin-5-yl)-[1,1′-biphenyl]-3-yl)oxy)butanoic acid] | ≤ 10 |
| CCOc1cc(-c2cccc(/C=C/C(=O)O)c2)ccc1-c1nc2[nH]nnc2c(=O)[nH]1 [Compound 235, (E)-3-(3′-ethoxy-4′-(7-oxo-6,7-dihydro-3H-[1,2,3]triazolo[4,5-d]pyrimidin-5-yl)-[1,1′-biphenyl]-3-yl)acrylic acid] | ≤ 10 |
| O=C(O)c1cc(-c2ccc(-c3nc4[nH]nnc4c(=O)[nH]3)c(OC3CCCC3)c2)ccc1O [Compound 200, 3′-(Cyclopentyloxy)-4-hydroxy-4′-(7-oxo-6,7-dihydro-3H-[1,2,3]triazolo[4,5-d]pyrimidin-5-yl)-[1,1′-biphenyl]-3-carboxylic acid] | ≤ 10 |
| CCOc1cc(-c2cc(O)cc(O[C@H](C)C(=O)O)c2)ccc1-c1nc2[nH]nnc2c(=O)[nH]1 (single isomer, unassigned) [Compound 255] | ≤ 10 |
| CCOc1cc(-c2cc(C(=O)O)n(C)c2)ccc1-c1nc2[nH]nnc2c(=O)[nH]1 [Compound 192, 4-(3-ethoxy-4-(7-oxo-6,7-dihydro-3H-[1,2,3]triazolo[4,5-d]pyrimidin-5-yl)phenyl)-1-methyl-1H-pyrrole-2-carboxylic acid] | ≤ 10 |
| CCOc1cc(-c2cc(C)cc(C(=O)O)c2)ccc1-c1nc2[nH]nnc2c(=O)[nH]1 [Compound 185, 3′-ethoxy-5-methyl-4′-(7-oxo-6,7-dihydro-3H-[1,2,3]triazolo[4,5-d]pyrimidin-5-yl)-[1,1′-biphenyl]-3-carboxylic acid] | ≤ 10 |
| O=C(O)c1ccc(-c2ccc(-c3nc4[nH]nnc4c(=O)[nH]3)cc2NC2CCCCC2)cc1 [Compound 289, 2′-(cyclohexylamino)-4′-(7-oxo-6,7-dihydro-3H-[1,2,3]triazolo[4,5-d]pyrimidin-5-yl)-[1,1′-biphenyl]-4-carboxylic acid] | ≤ 10 |
| CCOc1cc(-c2cc(O)cc(NCC(=O)O)c2)ccc1-c1nc2[nH]nnc2c(=O)[nH]1 [Compound 223, (3′-Ethoxy-5-hydroxy-4′-(7-oxo-6,7-dihydro-3H-[1,2,3]triazolo[4,5-d]pyrimidin-5-yl)-[1,1′-biphenyl]-3-yl)glycine] | ≤ 10 |
| CCOC(=O)C(C)c1cccc(-c2ccc(-c3nc4[nH]nnc4c(=O)[nH]3)c(OCC)c2)c1 (stereo not shown) [Compound 296, ethyl 2-(3′-ethoxy-4′-(7-oxo-6,7-dihydro-3H-[1,2,3]triazolo[4,5-d]pyrimidin-5-yl)-[1,1′-biphenyl]-3-yl)propanoate] | ≤ 10 |
| CCOC(=O)c1ccc(-c2ccc(-c3nc4[nH]nnc4c(=O)[nH]3)c(OCC)c2)cc1 [Compound 191, ethyl 3′-ethoxy-4′-(7-oxo-6,7-dihydro-3H-[1,2,3]triazolo[4,5-d]pyrimidin-5-yl)-[1,1′-biphenyl]-4-carboxylate] | ≤ 10 |
| O=c1[nH]c(-c2ccc(-c3ccc(-c4nnn[nH]4)cc3)cc2OC2CCCC2)nc2[nH]nnc12 [Compound 273, 5-(3-(cyclopentyloxy)-4′-(1H-tetrazol-5-yl)-[1,1′-biphenyl]-4-yl)-3,6-dihydro-7H-[1,2,3]triazolo[4,5-d]pyrimidin-7-one] | ≤ 10 |
| CCOc1cc(-c2cccc(O[C@H](CC)C(=O)O)c2)ccc1-c1nc2[nH]nnc2c(=O)[nH]1 (single isomer, unassigned) [Compound 253] | ≤ 10 |
| CCOc1cc(-c2cccc(/C=C(/C)C(=O)O)c2)ccc1-c1nc2[nH]nnc2c(=O)[nH]1 (single isomer, unassigned) [Compound 236, (Z)-3-(3′-ethoxy-4′-(7-oxo-6,7-dihydro-3H-[1,2,3]triazolo[4,5-d]pyrimidin-5-yl)-[1,1′-biphenyl]-3-yl)-2-methylacrylic acid] | ≤ 10 |
| CCOc1cc(-c2cccc(CC(CC)C(=O)O)c2)ccc1-c1nc2[nH]nnc2c(=O)[nH]1 (stereo not shown) [Compound 239, 2-((3′-ethoxy-4′-(7-oxo-6,7-dihydro-3H-[1,2,3]triazolo[4,5-d]pyrimidin-5-yl)-[1,1′-biphenyl]-3-yl)methyl)butanoic acid] | ≤ 10 |
| O=C(O)c1cc(O)cc(-c2ccc(-c3nc4[nH]nnc4c(=O)[nH]3)c(OC3CCCC3)c2)c1 [Compound 199, 3′-(Cyclopentyloxy)-5-hydroxy-4′-(7-oxo-6,7-dihydro-3H-[1,2,3]triazolo[4,5-d]pyrimidin-5-yl)-[1,1′-biphenyl]-3-carboxylic acid] | ≤ 10 |
| CCCNc1cc(-c2nc3[nH]nnc3c(=O)[nH]2)ccc1-c1ccc(C(=O)O)cc1 [Compound 291, 4′-(7-oxo-6,7-dihydro-3H-[1,2,3]triazolo[4,5-d]pyrimidin-5-yl)-2′-(propylamino)-[1,1′-biphenyl]-4-carboxylic acid] | ≤ 10 |
| CCOc1cc(-c2cccc(NCCC(=O)O)c2)ccc1-c1nc2[nH]nnc2c(=O)[nH]1 [Compound 226, 3-((3′-Ethoxy-4′-(7-oxo-6,7-dihydro-3H-[1,2,3]triazolo[4,5-d]pyrimidin-5-yl)-[1,1′-biphenyl]-3-yl)amino)propanoic acid] | ≤ 10 |
| CCOc1cc(-c2cccc(OC(C)(C)C(=O)O)c2)ccc1-c1nc2[nH]nnc2c(=O)[nH]1 [Compound 213, 2-((3′-Ethoxy-4′-(7-oxo-6,7-dihydro-3H-[1,2,3]triazolo[4,5-d]pyrimidin-5-yl)-[1,1′-biphenyl]-3-yl)oxy)-2-methylpropanoic acid] | ≤ 10 |
| O=C(O)c1ccc(-c2ccc(-c3nc4[nH]nnc4c(=O)[nH]3)c(OC3CCCC3)c2)cn1 [Compound 233, 5-(3-(Cyclopentyloxy)-4-(7-oxo-6,7-dihydro-3H-[1,2,3]triazolo[4,5-d]pyrimidin-5-yl)phenyl)picolinic acid] | ≤ 10 |
| CCOc1cc(-c2cccc(NC)c2)ccc1-c1nc2[nH]nnc2c(=O)[nH]1 [Compound 232, 5-(3-Ethoxy-3′-(methylamino)-[1,1′-biphenyl]-4-yl)-3,6-dihydro-7H-[1,2,3]triazolo[4,5-d]pyrimidin-7-one] | ≤ 10 |
| CCOc1cc(-c2cccc(CC(C)C(=O)O)c2)ccc1-c1nc2[nH]nnc2c(=O)[nH]1 (single isomer, unassigned) [Compound 311, 3-(3′-ethoxy-4′-(7-oxo-6,7-dihydro-3H-[1,2,3]triazolo[4,5-d]pyrimidin-5-yl)-[1,1′-biphenyl]-3-yl)-2-methylpropanoic acid] | ≤ 10 |
| CCOc1cc(-c2cc(O)cc(C(=O)O)c2)ccc1-c1nc2[nH]nnc2c(=O)[nH]1 [Compound 198, 3′-Ethoxy-5-hydroxy-4′-(7-oxo-6,7-dihydro-3H-[1,2,3]triazolo[4,5-d]pyrimidin-5-yl)-[1,1′-biphenyl]-3-carboxylic acid] | ≤ 10 |
| CCOc1cc(-c2cccc([C@H]3C[C@@H]3C(=O)O)c2)ccc1-c1nc2[nH]nnc2c(=O)[nH]1 (racemic) [Compound 277, rac-trans-2-(3′-ethoxy-4′-(7-oxo-6,7-dihydro-3H-[1,2,3]triazolo[4,5-d]pyrimidin-5-yl)-[1,1′-biphenyl]-3-yl)cyclopropane-1-carboxylic acid] | ≤ 10 |

Same assay, conditions: at 50 μM; Table 2

| Compound | % inhibition at 50 μM [% inhibition at] |
| --- | --- |
| CN(C)CCOc1cc(-c2ccc(C(=O)O)cc2)ccc1-c1nc2[nH]nnc2c(=O)[nH]1 [Compound 228, 3′-(2-(Dimethylamino)ethoxy)-4′-(7-oxo-6,7-dihydro-3H-[1,2,3]triazolo[4,5-d]pyrimidin-5-yl)-[1,1′-biphenyl]-4-carboxylic acid] | 16 |
